Source: patent publication US20050113577A1, “Solid forms of slats with tyrosine kinase activity” (priority 2002, published 2005)

Legend:
human KDR = target: T1, human KDR (Homo sapiens, UniProt P35968); experiment: VEGF Receptor Kinase Assay; format: biochemical; settings: tested by the assays described (KDR, HUVEC, Flt-1, Flt-3); no values given
T1 construct: cloning the cytoplasmic domain of the KDR kinase as an in frame fusion at the carboxy terminus of the GST gene; made in house; host or cells: Spodoptera frugiperda (Sf21) insect cells, baculovirus vector pAcG2T
Experimental: Other assays are known in the literature and could be readily performed by those of skill in the art (see, for example, Dhanabal et al., Cancer Res. 59:189-197; Xin et al., J. Biol. Chem. 274:9116-9121; Sheu et al., Anticancer Res. 18:4435-4441; Ausprunk et al., Dev. Biol. 38:237-248; Gimbrone et al., J. Natl. Cancer Inst. 52:413-427; Nicosia et al., In Vitro 18:538-549).
VEGF receptor kinase activity is measured by incorporation of radio-labeled phosphate into polyglutarnic acid, tyrosine, 4:1 (pEY) substrate. The phosphorylated pEY product is trapped onto a filter membrane and the incorporation of radio-labeled phosphate quantified by scintillation counting.
The intracellular tyrosine kinase domains of human KDR (Tennan, B. I. et al. Oncogene (1991) vol. 6, pp. 1677-1683.) and Flt-1 (Shibuya, M. et al. Oncogene (1990) vol. 5, pp. 519-524) were cloned as glutathione S-transferase (GST) gene fusion proteins. This was accomplished by cloning the cytoplasmic domain of the KDR kinase as an in frame fusion at the carboxy terminus of the GST gene. Soluble recombinant GST-kinase domain fusion proteins were expressed in Spodoptera frugiperda (Sf21) insect cells (Invitrogen) using a baculovirus expression vector (pAcG2T, Pharmingen). […]

[1] = Solubility in water and organic solvents at room temperature (suspended for 7 days); format: physicochemical
Experimental: [table] The solubility of Form A HCl Salt at room temperature was determined in water and several organic solvents that can be used in pharmaceutical processing.

[2] = Solubility in various aqueous solvent systems measured for 20 hours; format: physicochemical
Experimental: [table] The solubility of Form A in various aqueous solvent systems was measured for a period of 20 hours.

[3] = Partition coefficient between 1-octanol and water; format: physicochemical; settings: 1-octanol/water; pH (equilibrium) 3.8 (native); 0.033 mg/mL in aqueous phase at start
Experimental: Partition coefficient of Form A between I-octanol and water were determined at the native pH of the HCl Salt (Table III).

[4] = Hygroscopicity, step isotherm program 0 to 95% RH; format: physicochemical; settings: 25° C.
Experimental: The hygroscopicity of Form A was determined at 25° C. using a step isotherm program for relative humidities from 0 to 95% RH under nitrogen flow.

[5] = Solid form stability in suspension/slurry (XRPD); format: physicochemical
Experimental: An X-ray powder diffraction pattern of Form A is indicative of a crystalline material with multiple diffraction peaks between 5° and 30° 2-theta.

T1 sequence (P35968 786-1356 limits assumed): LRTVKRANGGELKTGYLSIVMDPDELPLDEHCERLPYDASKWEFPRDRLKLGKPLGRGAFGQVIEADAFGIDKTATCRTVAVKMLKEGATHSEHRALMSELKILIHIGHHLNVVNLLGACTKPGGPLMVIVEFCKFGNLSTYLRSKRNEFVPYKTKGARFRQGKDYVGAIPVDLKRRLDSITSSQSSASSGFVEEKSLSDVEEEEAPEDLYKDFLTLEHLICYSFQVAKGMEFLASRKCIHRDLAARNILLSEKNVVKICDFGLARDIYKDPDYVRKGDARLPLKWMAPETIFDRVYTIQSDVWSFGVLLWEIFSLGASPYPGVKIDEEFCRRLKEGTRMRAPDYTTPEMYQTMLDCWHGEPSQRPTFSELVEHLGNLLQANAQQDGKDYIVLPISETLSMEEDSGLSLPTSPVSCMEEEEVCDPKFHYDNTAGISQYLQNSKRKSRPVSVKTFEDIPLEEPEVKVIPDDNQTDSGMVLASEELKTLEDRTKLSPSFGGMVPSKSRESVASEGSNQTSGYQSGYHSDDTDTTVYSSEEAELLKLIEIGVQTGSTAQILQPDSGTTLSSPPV

Question: For `CS(=O)(=O)N1CCN(Cc2ccc3[nH]c(-c4cc5ccccc5[nH]c4=O)cc3c2)CC1` [Compound 1-11, 3-[5-(4-Methanesulfonyl-piperazin-1-ylmethyl)-1H-indol-2-yl]-1H-quinolin-2-one], which kinase inhibitory activity (human KDR) is on record?
Answer: inhibits the kinase KDR

Question: For `CS(=O)(=O)N1CCN(Cc2ccc3[nH]c(-c4cc5ccccc5[nH]c4=O)cc3c2)CC1.Cl` [Form A, hydrochloride salt of 3-[5-(4-methanesulfonyl-piperazin-1-ylmethyl)-1H-indol-2-yl]-1H-quinolin-2-one], which Solubility ([1]; Aqueous ETOH (50%)) is on record?
Answer: 4340 µg/mL

Question: And the Solubility ([1]; Aqueous IPA (50%))?
Answer: 3990 µg/mL

Question: What about the Solubility ([1]; Ethanol) of the same compound?
Answer: 130 µg/mL

Question: What about the Solubility ([1]; Isopropanol) of the same compound?
Answer: 57 µg/mL

Question: And the Solubility ([1]; Water)?
Answer: 260 µg/mL

Question: And the Solubility ([2]; 10% EtOH)?
Answer: 380 µg/mL

Question: What about the Solubility ([2]; 10% IPA) of the same compound?
Answer: 470 µg/mL

Question: What about the Solubility ([2]; 25% EtOH) of the same compound?
Answer: 1060 µg/mL

Question: And the Solubility ([2]; 25% IPA)?
Answer: 1780 µg/mL

Question: And the Solubility ([2]; 50% Acetone)?
Answer: 10660 µg/mL

Question: What about the Solubility ([2]; 50% EtOH) of the same compound?
Answer: 3820 µg/mL

Question: And the Solubility ([2]; 50% IPA)?
Answer: 4390 µg/mL

Question: And the Solubility ([2]; 75% EtOH)?
Answer: 3860 µg/mL

Question: And the Solubility ([2]; 75% IPA)?
Answer: 2290 µg/mL

Question: And the Solubility ([2]; Acetone)?
Answer: 61 µg/mL

Question: What about the “log P (log Ko/w)” value [3] of the same compound?
Answer: −4.34

Question: And the Hygroscopicity ([4]; 0 to 95% RH under nitrogen flow)?
Answer: not hygroscopic

Question: And the Moisture reversibly adsorbed ([4]; 75% RH)?
Answer: approximately 1%

Question: And the “Change in crystal structure (XRPD)” value ([5]; suspended in aqueous ethanol for seven days at RT)?
Answer: No change in crystal structure

Question: For `CS(=O)(=O)N1CCN(Cc2ccc3[nH]c(-c4cc5ccccc5[nH]c4=O)cc3c2)CC1.Cl` [Form E, hydrochloride salt of 3-[5-(4-methanesulfonyl-piperazin-1-ylmethyl)-1H-indol-2-yl]-1H-quinolin-2-one], which “Solid form after slurry” value ([5]; slurry in water at room temperature for seven days) is on record?
Answer: provided Form D crystalline solid
